Test results reported in patent US10952963B2, “Ready to use liquid RECK formulation” (QuVa Pharma, Inc., priority 2018, dated 2021).

Details: for pH that provides for acceptable stability: pH 4.8
Procedure: Multiple antioxidants, chelating agents, and buffers were evaluated to stabilize both epinephrine and ketorolac, which include: sodium bisulfite, sodium metabisulfite, EDTA Sodium Dihydrate (i.e., EDTA Sodium), citric acid, sodium phosphate dibasic, and PEG 400. Solution pH values were evaluated from a pH of 3.9-6.0.

Clc1cccc(Cl)c1N=C1NCCN1 [clonidine]
pH range of maximum stability: 3-4

CNC[C@H](O)c1ccc(O)c(O)c1 [epinephrine]
pH at which substantial degradation occurs: greater than 4
pH range of maximum stability: 3-4
pH that provides for acceptable stability: about 4.8

O=C(c1ccccc1)c1ccc2n1CCC2C(=O)O (stereo not shown) [ketorolac]
pH at which rate of degradation increases: less than 5
pH at which substance tended to degrade: less than 4.5
pH range of maximum stability: 6-7
sodium metabisulfite concentration in the presence of which the substance degrades substantially: ≥ 1 mg/mL
pH that provides for acceptable stability: about 4.8

CCCN1CCCC[C@H]1C(=O)Nc1c(C)cccc1C [ropivacaine]
pH range of maximum stability: 3-4
